{"source": "patent US20100166698A1", "about": "“NEW COMPOSITIONS AND METHODS FOR THE TREATMENT OF INFLAMMATION” (University of Virginia Patent Foundation, priority 2005, published 2010)", "origin": "cited, not measured here", "key": {"TNF-a-stimulated PMN": {"system": "TNF-a-stimulated PMN", "conditions": "adenosine 10 μM"}, "[1]": {"system": "TNF-α-stimulated PMN adhering to matrix proteins", "conditions": "DeLa Harpe, J. Immunol. 143, 596 (1989)"}}}
{"molecule": "Nc1ncnc2c1ncn2[C@@H]1O[C@H](CO)[C@@H](O)[C@H]1O", "note": "[adenosine]", "values": [{"measurement": "effect on TNF-a-stimulated PMN adherence to matrix proteins", "setting": "TNF-a-stimulated PMN", "value": "failed to see much of an effect"}, {"measurement": "oxidative burst of TNF-α-stimulated PMN adhering to matrix proteins", "setting": "[1]", "value": "dramatically decreases"}]}
